Converted amounts (≈) assume the structure as drawn.

Assay [1] is described as follows: Antifungal broth microdilution MIC assay. The note with it: read-out: minimum inhibitory concentrations. Background: Dilution methods test growth across graded concentrations, often in twofold steps.
Assay [2] has as its system Clostridium difficile. Put plainly: Broth microdilution MIC against C. difficile strains. The following applies: Clostridioides difficile, BAA1870, 48 h, read-out: minimum inhibitory concentrations (MIC).

For `Cc1ccc(S(=O)(=O)N2CCC3=C2C(c2cccc(Br)c2)OC3=O)cc1` (stereo not drawn) [Example 8, 6-(3-bromophenyl)-1-tosyl-1,2,3,6-tetrahydro-4H-furo[3,4-b]pyrrol-4-one], the MIC in assay [1] and in assay [2] was 64 to 128 µM (≈ 27.8 to 55.6 µg/mL) throughout. `Cc1ccc(S(=O)(=O)N2CCC3=C2COC3=O)cc1` [Example 11, 1-tosyl-1,2,3,6-tetrahydro-4H-furo[3,4-b]pyrrol-4-one]: in assay [1], the MIC fell in the range of 64 to 128 µM (≈ 17.9 to 35.8 µg/mL).

Consider `Cc1ccc(S(=O)(=O)N2CCC3=C2C2(COC2)OC3=O)cc1` [Example 19, 1-tosyl-2,3-dihydrospiro[furo[3,4-b]pyrrole-6,3′-oxetan]-4(1H)-one], for which the MIC in assay [1] and in assay [2] was 64 to 128 µM (≈ 20.6 to 41.1 µg/mL) throughout.

With `CCCC1OC(=O)/C1=C1\CCCN1S(=O)(=O)c1ccc(C)cc1` (stereo not drawn) [Example 22, (E)-4-propyl-3-(1-tosylpyrrolidin-2-ylidene)oxetan-2-one], the MIC in assay [1] is 64 to 128 µM (≈ 21.5 to 42.9 µg/mL).

Source of the values: US10138252B1, “Lactones” (Purdue Research Foundation, priority 2017, dated 2018).
